Experiment [1] concerns H3K18Ac in HB-CLS-2 cells. The experiment in a line: H3K18AC in-cell western (ICW) assay. The format is cell-based. Conditions: H3K18Ac in-cell western; read-out: CREBBP ICW IC50. A digest of the protocol:
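In-cell western: after methanol fixation, blocking, overnight 4° C anti-H3K18Ac staining, then 800CW secondary plus DRAQ5 for DNA content, integrated intensities were scanned at 800 and 700 nm. Before this, compound exposure lasted 2 hr at 37° C in HB-CLS-2 cells plated 16–24 hours earlier. Values expressed as IC50 (μM).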

For the next experiment, the target named is T1, CREBBP (1084-1701) (Homo sapiens, UniProt Q92793).
T1 construct: measured in the following biochemical assay using CREBBP (1084-1701); purchased
T1 sequence (Q92793 1084-1701): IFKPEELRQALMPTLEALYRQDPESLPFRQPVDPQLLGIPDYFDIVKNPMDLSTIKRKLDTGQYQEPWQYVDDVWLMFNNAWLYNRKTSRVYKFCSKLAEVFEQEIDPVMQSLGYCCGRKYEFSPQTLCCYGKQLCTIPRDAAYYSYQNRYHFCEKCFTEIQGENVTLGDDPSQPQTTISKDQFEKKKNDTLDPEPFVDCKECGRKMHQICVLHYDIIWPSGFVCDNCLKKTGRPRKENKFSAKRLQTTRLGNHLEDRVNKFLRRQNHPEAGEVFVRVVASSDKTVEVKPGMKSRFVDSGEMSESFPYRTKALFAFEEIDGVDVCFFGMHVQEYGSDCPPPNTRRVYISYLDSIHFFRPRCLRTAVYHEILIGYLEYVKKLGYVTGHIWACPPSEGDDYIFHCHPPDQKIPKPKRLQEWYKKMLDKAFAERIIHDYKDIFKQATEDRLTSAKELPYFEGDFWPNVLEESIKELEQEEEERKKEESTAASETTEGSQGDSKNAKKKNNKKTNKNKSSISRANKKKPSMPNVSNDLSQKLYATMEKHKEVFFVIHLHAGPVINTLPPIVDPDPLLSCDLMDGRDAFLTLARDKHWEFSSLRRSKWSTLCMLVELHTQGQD
The experiment in a line: Biochemical assay for CREBBP (1084-1701), SAMDI. The settings on record: SAMDI, read-out: CREBBP Biochemistry IC50. The essentials: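 Acetyltransferase activity measured by SAMDI mass spectrometry after capture on biochip. Enzyme sat with compound 30 min at RT before acetyl-CoA and biotinylated H3 11-25 (K14R, K23R) peptide were added for 30 min at RT. Formic acid quench, bicarbonate neutralisation; IC50 values reported.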

The next experiment relates to BC3C bladder cell line. Kind of experiment: 7-day proliferation assay, BC3C. The format is cell-based. The settings on record: 168 h, 7 days, CellTiter-Glo. Here is the method: (§1) This example describes methods and materials for 7-day proliferation assay.
(§2) A total of 22 bladder cell lines were used (see table below). Cell lines were cultured in recommended growth media according to supplier.
(§3) Cells were in culture media at a density optimized for a 7-day culture in a final volume of 150 μL per well in white opaque 96-well plates. Cells were allowed to adhere for several hours (4-6 h) then compounds were added with HPD300 Digital Dispenser and placed into the incubator at 37° C., 5% CO2 for 7 days. After 7 days incubation, 100 μL of CellTiter-Glo® Luminescent Cell Viability Assay (Promega-G7573) reagents were added per well. After 20 minutes incubation luminescence was measured in plate reader. IC50 were calculated from a non-linear logarithmic growth curve.
(§4) IC50 values (nanomolar (nM)) are summarized in the table below, which depicts the inhibitory effect of certain compounds in bladder cell lines.
In general terms: In ATP-based viability assays light output follows the ATP content of the culture.

In a further experiment the test system is JMSU1 bladder cell line. Kind of experiment: 7-day proliferation assay, JMSU1. The settings on record: JMSU-1, 168 h; JMSU1, 7 days, CellTiter-Glo. The format is cell-based. The protocol:
as §1, §2, §3, §4

With `CCn1ncc(CN(C)C(=O)c2cc(-c3ccc(NCCNC)c(C)n3)nc3ccc(Cl)cc23)c1C` [Compound 3, 6-chloro-N-[(1-ethyl-5-methyl-1H-pyrazol-4-yl)methyl]-N-methyl-2-(6-methyl-5-{[2-(methylamino)ethyl]amino}pyridin-2-yl)quinoline-4-carboxamide], the IC50 stood at 40 nM in experiment [1], 21 nM on CREBBP (1084-1701), 5.1 µM with BC3C bladder cell line and 378 nM in the experiment on JMSU1 bladder cell line.
The corresponding values for `CCn1ncc(CN(C)C(=O)c2cc(-c3ccc(NC4CN(C)C4)c(C)n3)nc3ccc(Cl)cc23)c1C` [Compound 480] are 23.1 nM, 17.1 nM, 10 µM and 546 nM.
For the molecule `CCc1noc(CN(C)C(=O)c2cc(-c3ccc(NCCNC)c(C)n3)nc3ccc(Cl)cc23)c1C` [Compound 537], the half-maximal inhibitory concentration (IC50) was found to be 48.3 nM in experiment [1], 32.8 nM at CREBBP (1084-1701), 4.06 µM in the experiment with BC3C bladder cell line and 748 nM with JMSU1 bladder cell line.
Taken in the same sequence, the figures for `CCc1ncc(CN(C)C(=O)c2cc(-c3ccc(NCCN(C)C)c(C)n3)nc3ccc(Cl)cc23)n1C` [Compound 577] were 85.4 nM, 42.9 nM, 1.19 µM and 997 nM.

The term IC50 denotes the midpoint of a concentration-inhibition curve.

The values above are taken from US20220144812A1, “QUINOLINE DERIVATIVES AND THEIR USE FOR THE TREATMENT OF CANCER” (Epizyme, Inc., priority 2019, published 2022).
